In patent US20180207228A1, “PEPTIDE COMBINATIONS AND USES THEREOF FOR TREATING GRASS ALLERGY” (ALK-Abelló A/S, priority 2015, published 2018):
Where no end group is shown, it is not given here.

What was measured:
Type in all cases: cell-based, human
[1] = system: allergen specific T cells; test: T cell proliferation assay (72 h) on donor derived T cell lines (TCL02/TCL03); settings: for Proliferation % donor coverage (TCL-02 DK1): T cell lines TCL-02 DK1, 30 donors, hit criteria SI>=2, CPM>=1000; for Proliferation strength (TCL-02 DK1): T cell lines TCL-02 DK1, strength of response (average relative magnitude)
Source text: Isolated PBMCs (peripheral blood mononuclear cells) obtained from the donors described in Example 2 were CD8 depleted and the T cell lines were established by stimulating the cultures with nPhl p1, mix of nPhl p 2 and […] 5 and […] established for each of the donors tested by stimulating with the mixture of above listed allergens. Grass allergic donors were recruited (cohort DK1 including 30 grass allergic individuals, DK2 including 24 grass allergic individuals and US1 including 15 grass allergic individuals). PBMCs were isolated from freshly drawn heparinized blood by gradient centrifugation on lymphoprep (Nycomed, Norway), washed twice and re-suspended in RPMI 1640 medium with HEPES and ultraglutamine (Cambrex, Belgium) supplemented with 5% v/v human AB-serum (Cambrex, Belgium), 100 units/ml penicillin, and 0.1 mg/ml streptomycin (Sigma, St Louis, USA) (referred to as 5% AB-medium). Aliquots of the isolated PBMCs were frozen and were thawed later to stimulate the T cell lines. Additionally either fresh or thawed PBMCs were used as antigen presenting cells (APCs) in the proliferation assay as described later. In some cases the PBMCs were freezed at this stage and thawed later on to continue the experiment as described in the following. The isolated PBMCs (fresh or thawed) were CD8 depleted by MACS magnetic depletion according to the manufacturer's instructions (Miltenyi Biotec, Bergisch Gladbach, Germany). On day 0 the CD8-depleted PBMCs (2×10^6/ml) were stimulated in 1 ml bulk cultures in AB medium in 24 well plates (Nunc, Denmark) with the mixture of natural allergens: nPhl p 1 (0.5 μg/ml), mix of […]). […] On day 14 cells were harvested to obtain T cell line generation 01 (referred to as TCL01). Restimulation of T cell lines were performed in AB-medium with the thawed autologous PBMCs (10^6/well, irradiated 2500 Rad), the above mixture of natural allergens (concentration as mentioned above), and PHA-P (0.5 μg/ml, Difco, Detroit, Mich., USA). rIL-2 was added at day 17, 18 and 19. On day 24 cells were harvested to obtain T cell line generation 02 (referred as TCL02). T cells were isolated, washed, counted and used for T cell proliferation assay as described later. Remaining cells were frozen for later thawing and re-stimulations. The T cell line generation 2 (TCL02) were thawed and were re-stimulated with allogeneic Epstein Bar Virus transformed lymphoblastoid cell lines (EBV) B cells (JY cells, 10^5/well, irradiated 3500 Rad), allogeneic PBMCs (10^6/well, irradiated 2500 Rad), and 0.5 μg/ml PHA-P and subsequent addition of rIL-2 at days 3-5 to generate T cell line generation 03 (referred to as TCL03). […] To summarize ELISpot experiments were carried out at day 14 (with TCL01) and proliferation assay on either day 24 (with TCL02) or at day 34 (with TCL03). […] To ensure that all T cell epitopes regions from the major and intermediate grass allergens of the grass were identified T cell screening was carried out with either overlapping peptides or selected peptides. […] These were overlapping 20-mer peptides spanning the entire full length amino acid sequence of […] and selected high binder peptides from Phl p 4 were tested. Additionally 21, 15 mer peptides were tested which were derived from various group 1 and 5 allergens. Also, 67 peptides from homologous grass allergens were tested. Finally some reference peptides and mixes thereof were also tested. The 15-mer peptides were selected on the basis of predicted and measured promiscuous HLA binding and of sequence homology between known proteins sequences from the relevant pooideae grasses and the Bermuda grass. […] To get comprehensive data from all the donors the peptides were tested in both Fluorospot/Elispot (day 14, TCL01) and proliferation (day 24, TCL02).

[2] = system: release of IL-5 upon T cell activation; test: Fluorospot assay, IL-5 release (DK1-TCL01, US1-TCL01); settings: head prints TCL-02 DK1; text: 25 TCL-01 DK1 lines
Description: (§1) Grass allergic donors were recruited (cohort DK1 including 30 grass allergic individuals, DK2 including 24 grass allergic individuals and US1 including 15 grass allergic individuals). PBMCs were isolated from freshly drawn heparinized blood by gradient centrifugation on lymphoprep (Nycomed, Norway), washed twice and re-suspended in RPMI 1640 medium with HEPES and ultraglutamine (Cambrex, Belgium) supplemented with 5% v/v human AB-serum (Cambrex, Belgium), 100 units/ml penicillin, and 0.1 mg/ml streptomycin (Sigma, St Louis, USA) (referred to as 5% AB-medium). Aliquots of the isolated PBMCs were frozen and were thawed later to stimulate the T cell lines. Additionally either fresh or thawed PBMCs were used as antigen presenting cells (APCs) in the proliferation assay as described later. In some cases the PBMCs were freezed at this stage and thawed later on to continue the experiment as described in the following. The isolated PBMCs (fresh or thawed) were CD8 depleted by MACS magnetic depletion according to the manufacturer's instructions (Miltenyi Biotec, Bergisch Gladbach, Germany). On day 0 the CD8-depleted PBMCs (2×10^6/ml) were stimulated in 1 ml bulk cultures in AB medium in 24 well plates (Nunc, Denmark) with the mixture of natural allergens: nPhl p 1 (0.5 μg/ml), mix of nPhl p 2/nPhl p 3 (1.0 μg/ml), nPhl p 4 (0.5 μg/ml), nPhl p 5 (0.5 μg/ml) and nCyn d 1 (0.5 μg/ml). Amount of 65 U, 30 U, and 30 U recombinant IL-2 (Chiron, USA) were added per well at days 5, 6 and 7, respectively. On day 14 cells were harvested to obtain T cell line generation 01 (referred to as TCL01).
(§2) On day 14 the T cells of TCL01 were isolated, washed and counted. The isolated T cells of TCL01 generation were used to perform either ELISpot or Fluorospot assay. TCL01 were further re-stimulated as described in the next paragraph for use in T cell proliferation. The aliquot for use in T cell proliferation was re-stimulated on day 14 to carry out proliferation experiment at day 24.
(§3) In the Fluorospot assays, release of IL-5 and IFN-γ upon T cell activation (of donor derived lines DK1-TCL01, and US1-TCL01) with a peptide or a peptide-mix described herein was measured by Fluorospot assay kit (Mabtech AB) and procedures were followed as per manufacturer's instructions. Briefly anti-human IL-5 and anti-human IFN-γ coated 96 well plates were obtained and blocked with 10% AB serum in RPMI. The plates were washed thoroughly and the isolated T cells were plated and incubated with either single peptides (2 μg/ml) or peptide mixes (2 μg/ml), or allergens nPhl p1, nPhl p 2, nPhl p 3, nPhl p 4, nPhl p 5, Cyn d 1 at 2 μg/ml for 20 hrs/37° C./5% CO2. After the incubation time the cells were removed by emptying the plate. Detection antibodies 7-B6-1-FS-FITC (1:200) and 5A10-biotin (2 μg/ml) were diluted in PBS-0.1% BSA and were added to the plate and incubated for 2 hours/room temperature (RT). There-after the plates were washed and anti-FITC-green (1:200) and SA-Red (1:200) diluted in PBS±0.1% BSA were added and incubated for 1 hour/RT/dark. After the incubation period the plates were washed, emptied and fluorescence enhancer solution was added for 15 minutes/RT. Plates were emptied, fluorescence enhancer solution was firmly tapped out against a clean paper, soft plastic under drain was removed and the plates were left in the dark to dry. The counts were inspected in a fluorospot reader. Hit criteria for peptide were 20 SFCs/10^6 PBMCs, p≤0.05 and poisson 0.05 stimulated cells compared to background, and a stimulation index (SI)≥2.
(§4) The peptides were identified as hits if they fulfilled the criteria as mentioned below where stimulation index (SI) value of 2 or above, Poisson value=<0.05 and P value=<0.05, SFC>=20 (IL-5/IFN-g)/10^6 cells and CPM>=1000 (proliferation) SI can be defined as [[…]/medium control] in a Fluorospot assay and [counts per minute (cpm)/medium control] in a proliferation assay.

[3] = system: release of IFN-γ upon T cell activation; test: Fluorospot assay, IFN-γ release (DK1-TCL01, US1-TCL01); settings: head prints TCL-02 DK1; 17 TCL-01 DK1 lines
Description: as §1, §2, §3, §4

Row | Compound | Proliferation % donor coverage (TCL-02 DK1) [1] [%] | Proliferation strength (TCL-02 DK1) [1] | IL-5-Fluorospotr % donor coverage (TCL-02 DK1) [2] [%] | IFN-gamma % donor coverage (TCL-02 DK1) [3] [%]
1 | GNTPIFKSGRGSGSSFEIKS-OH [compound 20] | 13.33 | 1.40 | 0.00 | 0.00
2 | CC[C@H](C)[C@H](NC(=O)[C@H](CCCCN)NC(=O)[C@H](CCC(=O)O)NC(=O)[C@@H](NC(=O)[C@@H](N)CC(C)C)[C@@H](C)CC)C(=O)N[C@@H](CC(N)=O)C(=O)N[C@@H](C)C(=O)NCC(=O)N[C@@H](Cc1ccccc1)C(=O)N[C@@H](CCCCN)C(=O)N[C@@H](C)C(=O)N[C@@H](C)C(=O)N[C@H](C(=O)N[C@@H](C)C(=O)N[C@@H](C)C(=O)O)C(C)C [compound 123] | 53.33 | 7.90 | 12.50 | 0.00
3 | ITATYGDKWLDAKSTWYGKP-OH [compound 16] | 10.00 | 0.70 | 0.00 | 4.00
4 | EIKSTKPEASSGEPVVVHIT-OH [compound 3] | 36.67 | 3.40 | 8.00 | 8.00
5 | CC[C@H](C)[C@H](NC(=O)[C@H](CC(N)=O)NC(=O)[C@H](CC(C)C)NC(=O)[C@@H](NC(=O)[C@H](CC(C)C)NC(=O)[C@@H](NC(=O)[C@H](CCCCN)NC(=O)[C@H](C)NC(=O)[C@H](CC(=O)O)NC(=O)[C@@H](N)CO)[C@@H](C)O)C(C)C)C(=O)N[C@@H](CCCCN)C(=O)N[C@@H](Cc1ccc(O)cc1)C(=O)N[C@H](C(=O)N[C@@H](CCCNC(=N)N)C(=O)N1CCC[C@H]1C(=O)O)[C@@H](C)O [compound 125] | 31.03 | 6.30 | 12.50 | 4.00
6 | RNEVVNDVSTYASGKVWGQK-OH [compound 57] | 16.67 | 2.00 | 4.00 | 4.00
7 | AFGAMAKKGDEQKLRSAGEL-OH [compound 22] | 26.67 | 2.10 | 4.00 | 15.00
8 | KDKWIELKESWGAIWRIDTP-OH [compound 10] | 60.00 | 9.80 | 24.00 | 4.00
9 | SKYPSGTKITFHIEKGSNDH-OH [compound 103] | 36.67 | 6.50 | 8.00 | 4.00
10 | SMGDDHFWAVRGGGGESFGI-OH [compound 49] | 40.00 | 5.60 | 20.00 | 12.00
11 | EVELREHGSDEWVAMTKGEG-OH [compound 33] | 0.00 | 0.00 | 0.00 | 0.00
12 | YFKGNFERLAITKGKVDPTD-OH [compound 59] | 30.00 | 3.20 | 0.00 | 0.00
13 | KPPFSGMTGSGNTPIFKSGR-OH [compound 19] | 16.67 | 1.10 | 0.00 | 0.00
14 | AVKPAAEEVKVIPAGELQVI-OH [compound 81] | 20.00 | 2.60 | 0.00 | 0.00
15 | EAAFNNAIKASTGGAYESYK-OH [compound 83] | 10.00 | 0.90 | 0.00 | 0.00
16 | WGAIWRIDTPDKLTGPFTVR-OH [compound 11] | 46.67 | 4.80 | 24.00 | 8.00
17 | LSYRSLQPETFAVVDLNKMR-OH [compound 53] | 10.00 | 1.20 | 0.00 | 4.00
